The results in this text go back to paper PMC10958470 (Virus Research, 2024).

Where “and” joins values, the source holds several entries; their conditions need not be identical. Equal entries are not always repeated. Structures can show the parent of a compound that is named as a salt. Where two headings read alike, the source gives them in different places.

The target of assay [1] is SARS-CoV-2 RdRp nsp12/7/8 complex (Severe acute respiratory syndrome coronavirus 2, UniProt P0DTD1). Kind of assay: biochemical. The following applies: for inhibition at 20 µM: read-out: RdRp Inhibition [%] 20 µM (PS Inhibition RdRp [%]). The format is biochemical.
Assay [2] addresses SARS-CoV-2 helicase (nsp13) (Severe acute respiratory syndrome coronavirus 2, UniProt P0DTD1). Kind of assay: biochemical. Type of assay: biochemical. The following applies: for inhibition at 20 µM: read-out: Helicase Inhibition [%] 20 µM (PS Inhibition Helicase [%]).
In assay [3] the target is SARS-CoV-2 nsp13 NTPase activity (Severe acute respiratory syndrome coronavirus 2, UniProt P0DTD1). Kind of assay: biochemical. Type of assay: biochemical.

Take `N#C/C(=C\c1ccc(O)c(O)c1)C(=O)OCCc1cccs1` [2-TEDC]: the “RdRp Inhibition [%] 20 µM (PS Inhibition RdRp [%])” value (from here on “RdRp Inhibition [%] 20 µM”) in assay [1] came to 97.86%. In assay [1] (read-out: RdRp IC50), the IC50 is 7.99 µM. For the same molecule, in assay [2], the “Helicase Inhibition [%] 20 µM (PS Inhibition Helicase [%])” value (from here on “Helicase Inhibition [%] 20 µM”) is given as 8.66%. Also, the “PicoGreen effect [%] 20 µM” value in the assay with annealed dsDNA substrate turned out to be 7.15%.
For `Nc1ncnc2c1ncn2[C@@H]1O[C@H](COP(=O)(O)OP(=O)(O)OP(=O)(O)O)[C@@H](O)[C@H]1O` [ATP, adenosine triphosphate], the “apparent Kmapp (RdRp substrates)” value in assay [1] amounted to 102.7 µM. In assay [2], the “Kmapp (mM) ATP, - DTT” value worked out at 1.9 mM.
On to `O=C(O)c1ccccc1Nc1ccc(CCc2ccc(Cl)c(Cl)c2)cc1` [PD-118057], for which the “RdRp Inhibition [%] 20 µM” value in assay [1] turned out to be 81.81%. The IC50 in assay [1] (read-out: RdRp IC50) is over 20 µM. Also, the “Helicase Inhibition [%] 20 µM” value in assay [2] was 7.76%. For the same molecule, the “PicoGreen effect [%] 20 µM” value with annealed dsDNA substrate was determined as 11.19%.
`C=CCn1c(CSc2ccccc2[N+](=O)[O-])n[nH]c1=S` [SSYA10-001]: in assay [2], the “inhibition of helicase unwinding activity in presence of DTT” value is reported as “effectively eliminated the inhibition”. For the same molecule, in assay [3], the “inhibition of helicase NTPase activity, absence of DTT” value was “inhibits NTPase activity only in the absence of DTT”.
For the molecule `CC(C)c1ccccc1Cc1cc(C(=O)Nc2ccc(S(=O)(=O)c3ccccc3C(C)(C)C)cc2)c(O)c(O)c1O` [TW-37], the “RdRp Inhibition [%] 20 µM” value in assay [1] was 89.4%. Moreover, in assay [1] (read-out: RdRp IC50), the IC50 amounted to 13.7 µM. Further, in assay [2], the “Helicase Inhibition [%] 20 µM” value is given as 3.76%. For the same molecule, the “PicoGreen effect [%] 20 µM” value in the assay with annealed dsDNA substrate was 3.9%.
As to `OC[C@H]1O[C@H]([S-])[C@H](O)[C@@H](O)[C@@H]1O.[Au+]` [aurothioglucose], the “RdRp Inhibition [%] 20 µM” value in assay [1] stood at 4.77%. The “DTT nsp13 inhibition [%] 20 µM (DTT HC Helicase inhibition [%])” value (from here on “DTT nsp13 inhibition [%] 20 µM”) in assay [2] is given as 98.65%. Also, the “Helicase Inhibition [%] 20 µM” value in assay [2] is given as 100.73%. Further, the figures for the half-inhibitory concentration (IC50) in assay [2] (read-out: DTT Helicase IC50) and in assay [2] (read-out: Helicase IC50) were 10.6 µM and 1.95 µM, respectively. Besides, the “PicoGreen effect [%] 20 µM” value with annealed dsDNA substrate was found to be 13.9%. In addition, the “ATPase inhibition [%] 20 µM (HC Helicase ATPase inhibition [%])” value in assay [3] came to 106.07%.
Regarding `CC1(C)C(/C=C/C=C/C=C/C=C2\N(CCCCS(=O)(=O)O)c3ccc4ccccc4c3C2(C)C)=[N+](CCCCS(=O)(=O)[O-])c2ccc3ccccc3c21` [cardiogreen], the “RdRp Inhibition [%] 20 µM” value in assay [1] amounted to 4.44%. For the same molecule, in assay [2], the “DTT Helicase unwinding inhibition [%] 2.5 µM triplicates” value is 65% and 65.01%; the “DTT nsp13 inhibition [%] 20 µM” value came out at 94.06%; the “Helicase unwinding inhibition 2.5 µM triplicates” value stood at 66.59. The IC50 in assay [2] (read-out: DTT Helicase IC50) was 3.85 µM. Besides, in assay [2] (read-out: Helicase IC50), the IC50 stood at 3.57 µM. For the same molecule, the “PicoGreen effect [%] 20 µM” value with annealed dsDNA substrate worked out at 26.52%. In assay [3], the “ATPase inhibition [%] 20 µM (HC Helicase ATPase inhibition [%])” value is recorded as 97.11%, the “DTT Helicase ATPase activity PLUS DNA substrate 2 µM” value is reported as 51.49, the “DTT Helicase ATPase activity [%] 2 µM” value turned out to be 60.43% and the “Helicase ATPase activity PLUS DNA substrate 2 µM” value amounted to 32.88. Moreover, in assay [3], the “Helicase ATPase activity [%] 2 µM” value came out at 45.65%, the “gain of ATPase activity reduction in the presence of dsDNA substrate” value was 10–15% and the “remaining NTPase activity” value was 60.4%.
`Cc1cc(N)c2ccccc2[n+]1CCCCCCCCCC[n+]1c(C)cc(N)c2ccccc21` [dequalinium chloride]: inhibition in assay [1] (RdRp IC50 [µM]) was half-maximal at 4.07 µM (IC50). Also, the inhibition at 20 µM stood at 94.6% in assay [1] and 25.6% in assay [2]. Further, the “PicoGreen effect [%] 20 µM” value in the assay with annealed dsDNA substrate was −4.04%.
Turning to `O=C(Nc1ccc2c(O)cc(S(=O)(=O)[O-])cc2c1)Nc1ccc2c(O)cc(S(=O)(=O)[O-])cc2c1.[Na+].[Na+]` [disodium 7,7′-(carbonyldiimino) bis(4-hydroxy-2-naphthalenesulfonate)], the “RdRp Inhibition [%] 20 µM” value in assay [1] is listed as 90.5%. Further, in assay [1] (read-out: RdRp IC50), the IC50 is over 20 µM. In addition, in assay [2], the “DTT Helicase unwinding inhibition [%] 2.5 µM triplicates” value is listed as 6.27%, the “DTT nsp13 inhibition [%] 20 µM” value was 65.72% and the “Helicase Inhibition [%] 20 µM” value is recorded as 84.75%. Besides, in assay [2] (read-out: DTT Helicase IC50), the IC50 is over 20 µM. Further, in assay [3], the “DTT Helicase ATPase activity PLUS DNA substrate 2 µM” value turned out to be 103.05 and the “DTT Helicase ATPase activity [%] 2 µM” value stood at 103.17%.
`CCOc1ccc2nc3cc(N)ccc3c(N)c2c1` [ethacridine lactate] gave an IC50 in assay [1] (RdRp IC50 [µM]) of 9.96 µM. Besides, the inhibition at 20 µM in assay [1] came out at 80.3%; in assay [2], 35.5%. In the assay with annealed dsDNA substrate, the “PicoGreen effect [%] 20 µM” value is listed as 32.09%.
For `OCCOCCN1CCN(C(c2ccccc2)c2ccc(Cl)cc2)CC1` (stereo not shown) [hydroxyzine pamoate], in that order: 16.5 µM, 76.8%, 4.28% and 1.28%.
`C=C1c2cccc(O)c2C(=O)C2=C(O)[C@]3(O)C(=O)C(C(N)=O)=C(O)[C@@H](N(C)C)[C@@H]3[C@@H](O)[C@H]12` [methacycline hydrochloride] showed an IC50 in assay [1] (RdRp IC50 [µM]) of 6.43 µM. The inhibition at 20 µM in assay [1] worked out at 120%; in assay [2], 25.2%. Moreover, the “PicoGreen effect [%] 20 µM” value in the assay with annealed dsDNA substrate was determined as 25.54%.
For `O=c1c(O)c(-c2ccc(O)cc2O)oc2cc(O)cc(O)c12` [morin hydrate (aurantica), morin hydrate], in assay [1], the “RdRp Inhibition [%] 20 µM” value came out at 95.67%. Besides, in assay [1] (read-out: RdRp IC50), the IC50 stood at 5.96 µM. In addition, in assay [2], the “Helicase Inhibition [%] 20 µM” value came out at 39.33%. Moreover, the “PicoGreen effect [%] 20 µM” value in the assay with annealed dsDNA substrate came to 20.36%.
With `O=C(N/N=C/c1ccc([N+](=O)[O-])o1)c1cc([N+](=O)[O-])cc([N+](=O)[O-])c1O` [nifursol], the IC50 in assay [1] (RdRp IC50 [µM]) stood at 11.5 µM. For the same molecule, the inhibition at 20 µM is 100% in assay [1] and 5.5% in assay [2]. Moreover, in the assay on annealed dsDNA substrate, the “PicoGreen effect [%] 20 µM” value is reported as 8.54%.
Consider `O=C(O)c1cc(/N=N/c2ccc(O)c(C(=O)O)c2)ccc1O` [olsalazine sodium], for which the IC50 in assay [1] (RdRp IC50 [µM]) came to 14.4 µM. In addition, in assay [1], the inhibition at 20 µM was determined as 84.7%. Also, the “PicoGreen effect [%] 20 µM” value in the assay on annealed dsDNA substrate is on record as 12.75%.
In assay [1] (RdRp IC50 [µM]), `CN(C)[C@@H]1C(O)=C(C(N)=O)C(=O)[C@@]2(O)C(O)=C3C(=O)c4c(O)cccc4[C@@](C)(O)[C@H]3[C@H](O)[C@@H]12` [oxytetracycline] yielded an IC50 of 16.1 µM. Also, the inhibition at 20 µM in assay [1] was found to be 100%; in assay [2] it was 16.4%. Further, the “PicoGreen effect [%] 20 µM” value in the assay with annealed dsDNA substrate was determined as 19.99%.
In the case of `COc1cc(NC(C)CCCN)c2ncccc2c1` (stereo not shown) [primaquine phosphate], it took 6.56 µM to reach half-maximal inhibition in assay [1] (RdRp IC50 [µM]) (IC50). The results for the inhibition at 20 µM in assay [1] and in assay [2] were 102% and 7.17%, respectively. Besides, the “PicoGreen effect [%] 20 µM” value in the assay with annealed dsDNA substrate came to 1.58%.
In assay [1] (RdRp IC50 [µM]), `O=C(O)c1c(Cl)c(Cl)c(Cl)c(Cl)c1-c1c2cc(I)c(=O)c(I)c-2oc2c(I)c(O)c(I)cc12` [rose bengal sodium salt] displayed an IC50 of over 20 µM. For the same molecule, the inhibition at 20 µM in assay [1] is 98%; in assay [2], 21.5%. In addition, the “PicoGreen effect [%] 20 µM” value with annealed dsDNA substrate is recorded as 30.91%.
On to `O=C1OC2(c3cc(I)c(O)c(I)c3Oc3c2cc(I)c(O)c3I)c2c(Cl)c(Cl)c(Cl)c(Cl)c21` [rose-bengal-lactone], for which the “RdRp Inhibition [%] 20 µM” value in assay [1] was found to be 99.44%. For the same molecule, the “Helicase Inhibition [%] 20 µM” value in assay [2] is −2.61%. Also, in the assay with annealed dsDNA substrate, the “PicoGreen effect [%] 20 µM” value stood at 35.69%.
As to FPA-124, the “RdRp Inhibition [%] 20 µM” value in assay [1] was determined as 7.70%. The “DTT nsp13 inhibition [%] 20 µM” value in assay [2] was determined as 64.76%. For the same molecule, the “PicoGreen effect [%] 20 µM” value in the assay with annealed dsDNA substrate was −3.30%.
In the case of tyrphostin-AG-835, in assay [1], the “RdRp Inhibition [%] 20 µM” value came out at 84.15%. In addition, in assay [1] (read-out: RdRp IC50), the 50% inhibitory concentration (IC50) came out at 9.64 µM. The “Helicase Inhibition [%] 20 µM” value in assay [2] came to 7.56%. Moreover, the “PicoGreen effect [%] 20 µM” value with annealed dsDNA substrate was found to be 11.5%.

One may read the IC50 as the concentration needed to halve the response being measured. What is called inhibition is the drop in the measured response relative to a control, in per cent.
